Converted amounts (≈) assume the structure as drawn.

Broadly, the MIC is the smallest concentration in the dilution series that meets the test's criterion for growth inhibition.

Assay in all cases: MIC (YAG medium)
What all share (format): cell-based

For assay [1], the system named is Aspergillus fumigatus AF293. Conditions: YAG medium, MIC banded into grades, AF293; for MIC: Aspergillus fumigatus, read-out: MIC A. fumigatus (grade). On the procedure:
(§1) Between 1 and 5 mgs of compound were accurately weighed out into a sterile Eppendorf tube. The compound was dissolved in DMSO to give a solution containing 5 mg/mL. Tubes were stored at −20° C. until required.
(§2) On the day of testing thawed solutions were vortex mixed to ensure homogeneity. 30 μL of solution was removed and added to 570 μL of sterile water in a separate sterile Eppendorf The thoroughly mixed solution was used to prepare a series of doubling dilutions in water, in a deep well plate. […] replicate plates were prepared using a Minitrak by aspirating 20 μL from each well into eleven clear polystyrene 96 well plates.
(§3) Spores of Aspergillus spp. (Aspergillus fumigatus [two strains], Aspergillus terreus [two strains], Aspergillus niger and Aspergillus flavus) were harvested from cultures grown on Sabarauds agar for 5 days, and resuspended in PBS/Tween 80 to approx 1×10^7 cfu/mL. Other filamentous fungi (Absidia corymbifera, Fusarium solani, Rhizomucor, Scedosporium spp., Trichophyton spp.), were grown on Sabarauds agar for 2-10 days and spores/hyphae resuspended in PBS/Tween to give approx 1×10^7 cfu/mL. Candida species (Candida albicans, Candida glabrata, Candida krusei, Candida parapsilosis and Candida tropicalis) were grown on Sabarauds agar, cells were harvested from the agar using a sterile loop and resuspended in PBS/Tween 80 to approx 1×10^6 cfu/mL. Each organism suspension was diluted in RPMI medium, containing 2% glucose and 0.135 M MOPS buffer (pH 7.0) to 0.5−2×10^4 cfu/mL for Aspergillus spp. and other filamentous fungi and 0.5-2×10^3 cfu/mL for yeast. 80 μL of an organism suspension was added to each well of the plate containing drug dilutions.
(§4) This produced MIC plates with a drug range 50-0.05 mg/L and organism inocula of 1-2×10^4 cfu/mL for Aspergillus spp. and other filamentous fungi and 1-2×10^3 cfu/mL for yeasts. All plates were incubated for 24-48 hrs at 35° C. Growth was assessed by monitoring the optical density at 485 nm for each well. The MIC of a compound is the lowest drug concentration that inhibits growth of an organism by >80% compared with a drug free control. MICs are recorded as mg/L. Other growth media can be used for susceptibility testing, and the activity of the described compounds can also be assessed in a medium comprising 1% glucose, 1% ammonium chloride and 0.5% yeast extract (YAG medium). To perform MIC tests in this medium, dilutions of compounds are prepared in microtitre plates as described above. Fungal strains to be tested are grown and harvested in an identical manner to that described above, each organism suspension is then diluted in YAG medium to 0.5-2×10^4 cfu/mL for Aspergillus spp. and other filamentous fungi and 0.5-2×10^3 cfu/mL for yeast. 80 μL of an organism suspension was added to each well of the plate containing drug dilutions. This produced MIC plates with a drug range 50-0.05 mg/L and organism inocula of 1-2×10^4 cfu/mL for Aspergillus spp. and other filamentous fungi and 1-2×10^3 cfu/mL for yeasts. All plates were incubated for 24 hrs at 35° C. Growth was assessed by monitoring the optical density at 485 nm for each well. The MIC of a compound is the lowest drug concentration that inhibits growth of an organism by >70% compared with a drug free control. MICs are recorded as mg/L. In cases where the MIC of an organism is […] mg/L the MIC is repeated using a concentration range of 0.5-0.0005 mg/L. MIC tests in YAG medium have more clear-cut endpoints and have slightly lower MICs than those performed in RPMI medium.
(§5) The following organisms were tested: Absidia corymbifera, Aspergillus flavus, Aspergillus fumigatus AF293 and AF210, Aspergillus niger, Aspergillus terreus AT4 and AT49, Candida albicans, Candida glabrata, Candida krusei, Candida parapsilosis, Candida tropicalis, Fusarium solani, Rhizomucor sp., Scedosporium apiospermum, Scedosporium prolificans, Trichophyton mentagrophytes, and Trichophyton rubrum.

Assay [2] has as its system Aspergillus flavus. The note with it: YAG medium, MIC banded into grades; for MIC: Aspergillus flavus, read-out: MIC A. flavus (grade). Here is the method: as §1, §2, §3, §4, §5
Assay [3] has as its system Aspergillus terreus AT49. Conditions: YAG medium, MIC banded into grades, AT49; for MIC: Aspergillus terreus, read-out: MIC A. terreus 49 (grade). On the procedure:
as §1, §2, §3, §4, §5

Assay [4] concerns Aspergillus fumigatus AF210. The note with it: YAG medium, MIC banded into grades, AF210; for MIC: Aspergillus fumigatus, read-out: MIC A. fumigatus 210 (grade). On the procedure:
as §1, §2, §3, §4, §5

In assay [5] the test system is Aspergillus terreus AT4. Conditions: YAG medium, MIC banded into grades, AT4; for MIC: Aspergillus terreus, read-out: MIC A. terreus (grade). On the procedure: as §1, §2, §3, §4, §5
In assay [6] the test system is Aspergillus niger. The note with it: YAG medium, MIC banded into grades; for MIC: Aspergillus niger, read-out: MIC A. niger (grade). Here is the method:
as §1, §2, §3, §4, §5

As to `Cc1cc(C)nc(N(C)CCNc2ccc(NC(=O)C(=O)c3c(-c4ccccc4)cc4ccccn34)cc2)c1` [Example 78, N-(4-{2-[(4,6-Dimethyl-pyridin-2-yl)-methyl-amino]-ethylamino}-phenyl)-2-oxo-2-(2-phenyl-indolizin-3-yl)-acetamide], the MIC in assay [1], in assay [2], in assay [3], in assay [4], in assay [5] and in assay [6] was less than 1 µg/mL each time.

On to `C=C(C)CN1CCN(c2ccc(NC(=O)C(=O)c3c(-c4ccc(N5CCOCC5)cc4)cc4ccccn34)cc2)CC1` [Example 40, N-{4-[4-(2-Methyl-allyl)-piperazin-1-yl]-phenyl}-2-[2-(4-morpholin-4-yl-phenyl)-indolizin-3-yl]-2-oxo-acetamide], for which the MIC in assay [1] is more than 10 µg/mL; in assay [2], 1 to 10 µg/mL (≈ 1.77 to 17.7 µM); in assay [3] it was more than 10 µg/mL; in assay [4], more than 10 µg/mL; in assay [5], more than 10 µg/mL; in assay [6], more than 10 µg/mL.

On to `O=C(Nc1ccc(N2CCN(Cc3ccco3)CC2)cn1)C(=O)c1c(-c2ccccc2)cc2ccccn12` [Example 34, N-[5-(2-Furan-2-yl-methyl-piperazin-yl)-peridin-2-yl]-2-oxo-2-(2-phenylindolizin-3-yl)-acetamide], for which, in assay [1], the “MIC A. fumigatus (grade)” value is recorded as 3 (A grade of 3 represents an MIC of less than 1 mg/L). In addition, the “MIC A. flavus (grade)” value in assay [2] is listed as 3 (A grade of 3 represents an MIC of less than 1 mg/L). For the same compound, the “MIC A. terreus 49 (grade)” value in assay [3] is recorded as 3 (A grade of 3 represents an MIC of less than 1 mg/L). For the same compound, in assay [4], the “MIC A. fumigatus 210 (grade)” value is on record as 3 (A grade of 3 represents an MIC of less than 1 mg/L). The “MIC A. terreus (grade)” value in assay [5] is given as 3 (A grade of 3 represents an MIC of less than 1 mg/L). The “MIC A. niger (grade)” value in assay [6] is 3 (A grade of 3 represents an MIC of less than 1 mg/L).

For `CN1CCN(c2oc(-c3ccc(NC(=O)C(=O)c4c(-c5ccccc5)cc5ccccn45)cc3)nc2C(=O)C(F)(F)F)CC1` [Example 29, N-{4-[5-(4-Methyl-piperazin-1-yl)-4-(2,2,2-trifluoro-acetyl)-oxazol-2-yl]-phenyl}-2-oxo-2-(2-phenyl-indolizin-3-yl)-acetamide], the minimum inhibitory concentration (MIC) is less than 1 µg/mL in assay [1]; less than 1 µg/mL in assay [2]; less than 1 µg/mL in assay [3]; 1 to 10 µg/mL (≈ 1.66 to 16.6 µM) in assay [4]; less than 1 µg/mL in assay [5]; less than 1 µg/mL in assay [6].

For “N-{4-[4-(2,6-Dimethyl-pyrimidin-4-yl)-piperazin-1-yl]-phenyl}-2-(2-phenyl-indolizin-3-yl)-acetamide [Example 45]”, the “MIC A. fumigatus (grade)” value in assay [1] is recorded as 3 (A grade of 3 represents an MIC of less than 1 mg/L). Moreover, the “MIC A. flavus (grade)” value in assay [2] is 3 (A grade of 3 represents an MIC of less than 1 mg/L). Besides, the “MIC A. terreus 49 (grade)” value in assay [3] is given as 3 (A grade of 3 represents an MIC of less than 1 mg/L). For the same compound, in assay [4], the “MIC A. fumigatus 210 (grade)” value is on record as 3 (A grade of 3 represents an MIC of less than 1 mg/L). In assay [5], the “MIC A. terreus (grade)” value is listed as 3 (A grade of 3 represents an MIC of less than 1 mg/L). Moreover, in assay [6], the “MIC A. niger (grade)” value is listed as 2 (A grade of 2 represents an MIC of from 1 to 10).

Consider `CC(C)c1nccn1CCOC(=O)C(C)(C)c1cccc(NC(=O)C(=O)c2c(-c3ccccc3)cc3ccccn23)c1` [Example 22, 2-Methyl-2-{3-[2-oxo-2-(2-phenyl-indolizin-3-yl)-acetylamino]-phenyl}-propionic acid 2-(2-isopropyl-imidazol-1-yl)-ethyl ester], for which the MIC in assay [1] is more than 10 µg/mL; in assay [2] it was 1 to 10 µg/mL (≈ 1.78 to 17.8 µM); in assay [3], 1 to 10 µg/mL (≈ 1.78 to 17.8 µM); in assay [4], more than 10 µg/mL; in assay [5], 1 to 10 µg/mL (≈ 1.78 to 17.8 µM); in assay [6], more than 10 µg/mL.

For `Cc1cc(C)nc(NCCNc2ccc(NC(=O)C(=O)c3c(-c4ccccc4)cc4ccccn34)cc2)c1` [Example 92, N-{4-[2-(4,6-dimethyl-pyridin-2-yl-amino)-ethylamino]-phenyl}-2-oxo-2-(2-phenyl-indolizin-3-yl)-acetamide], the MIC is less than 1 µg/mL in assay [1]; less than 1 µg/mL in assay [2]; less than 1 µg/mL in assay [3]; less than 1 µg/mL in assay [4]; less than 1 µg/mL in assay [5]; 1 to 10 µg/mL (≈ 1.99 to 19.9 µM) in assay [6].

On to `O=C(Nc1ccc(N2CCN(Cc3ccco3)CC2)cc1)C(=O)c1c(-c2ccccc2)cc2ccccn12` [Example 31, 4-[4-(2-Furan-2-yl-methyl-piperazin-yl)-phenyl]-2-oxo-2-(2-phenyl-indolizin-3-yl)-acetamide], for which the “MIC A. fumigatus (grade)” value in assay [1] is 3 (A grade of 3 represents an MIC of less than 1 mg/L). The “MIC A. flavus (grade)” value in assay [2] is reported as 3 (A grade of 3 represents an MIC of less than 1 mg/L). Besides, the “MIC A. terreus 49 (grade)” value in assay [3] is 3 (A grade of 3 represents an MIC of less than 1 mg/L). Also, the “MIC A. fumigatus 210 (grade)” value in assay [4] is listed as 3 (A grade of 3 represents an MIC of less than 1 mg/L). The “MIC A. terreus (grade)” value in assay [5] was 3 (A grade of 3 represents an MIC of less than 1 mg/L). Further, the “MIC A. niger (grade)” value in assay [6] is reported as 3 (A grade of 3 represents an MIC of less than 1 mg/L).

Take `Cc1cc(C)nc(N2CCC(O)(c3ccc(NC(=O)C(=O)c4c(-c5ccccc5)cc5ccccn45)cc3)CC2)c1` [Example 79, N-[4-(4-hydroxy-4′,6′-dimethyl-3,4,5,6-tetrahydro-2H-[1,2′]-bipyridinyl-4-yl)-phenyl]-2-oxo-2-(2-phenyl-indolizin-3-yl)-acetamide]: the MIC in assay [1], in assay [2], in assay [3], in assay [4], in assay [5] and in assay [6] was more than 10 µg/mL throughout.

`Cc1cc(C)nc(N(C)CCCN(C)c2ccc(NC(=O)C(=O)c3c(-c4ccccc4)cc4ccccn34)cc2)c1` [Example 67, N-[4-({3-[(4,6-dimethyl-pyridin-2-yl)-methyl-amino]-propyl}-methyl-amino)-phenyl]-2-oxo-2-(2-phenyl-indolizin-3-yl)-acetamide]: the MIC in assay [1], in assay [2], in assay [3], in assay [4], in assay [5] and in assay [6] was less than 1 µg/mL each time.

For the compound `CC(C)(C)CN1CCN(c2ccc(NC(=O)C(=O)c3c(-c4ccccc4)cc4ccccn34)nc2)CC1` [Example 50, N-{5-[4-(2,2-Dimethyl-propyl)-piperazin-1-yl]-pyridin-2-yl}-2-oxo-2-(2-phenyl-indolizin-3-yl)-acetamide], the MIC in assay [1], in assay [2], in assay [3], in assay [4], in assay [5] and in assay [6] was less than 1 µg/mL throughout.

The values are drawn from patent publication US20110183969A1, “ANTIFUNGAL COMBINATION THERAPY” (priority 2008, published 2011).
